The values below come from ChEMBL document CHEMBL1132911, “Cytotoxic halogenoacrylic derivatives of distamycin A” (Bioorg Med Chem Lett, 2000).

Experiment [1] has as its system L1210. As to the kind of experiment: In vitro cytotoxicity was measured after 4 hr of exposure against L1210 murine leukemia cells. The experiment is classed as functional, Mus musculus.
For experiment [2], the system named is L1210. Kind of experiment: In vitro cytotoxicity was measured after 48 hr of exposure against L1210 murine leukemia cells. It counts as functional, cell-based. To be noted: Mus musculus, L1210, 48 h.
For experiment [3], the system named is Mus musculus. Kind of experiment: In vivo antileukemic activity against L1210 murine leukemia cell after intravenous administration in mice expressed as optimal (non toxic) dose. It counts as functional.
Experiment [4] relates to Mus musculus. Kind of experiment: In vivo antileukemic activity against L1210 murine leukemia in mice after iv administration of compound expressed as T/C ie median survival time of treated versus untreated mice (10). The experiment is classed as functional.
Experiment [5] has as its system Mus musculus. Kind of experiment: In vivo antileukemic activity against L1210 murine leukemia after intravenous administration in mice expressed as optimal (non toxic) dose. The experiment is classed as functional.

Take `Cl.Cn1cc(NC(=O)c2cc(NC(=O)c3cc(NC(=O)/C=C\Cl)cn3C)cn2C)cc1C(=O)NCCC(=N)N`: in the experiment on L1210 [1], the IPol is above 50 µM.

In the experiment with L1210 [1], `C=CC(=O)Nc1cc(C(=O)Nc2cc(C(=O)Nc3cc(C(=O)NCCC(=N)N)n(C)c3)n(C)c2)n(C)c1.Cl` registered an IPol above 50 µM.

As usually defined, the IC50 is the concentration at which inhibition is half-maximal. The low end stands for greater potency in that assay, the high end for weaker potency in that assay. `C=C(F)C(=O)Nc1cc(C(=O)Nc2cc(C(=O)Nc3cc(C(=O)Nc4cc(C(=O)NCCC(=N)N)n(C)c4)n(C)c3)n(C)c2)n(C)c1`: the IC50 in the experiment on L1210 [2] was above 0.7 µM.

In the experiment on L1210 [2], `C=C(Br)C(=O)Nc1cc(C(=O)Nc2cc(C(=O)NCCC(=N)N)n(C)c2)n(C)c1` registered a half-inhibitory concentration (IC50) above 1.3 µM.

A word on the T/C: it is the ratio of treated to control. `C=C(Cl)C(=O)Nc1cc(C(=O)Nc2cc(C(=O)Nc3cc(C(=O)NCCC(=N)N)n(C)c3)n(C)c2)n(C)c1.Cl`: the IPol in the experiment on L1210 [1] came out at 1.47 µM. Moreover, the OD in the experiment on Mus musculus [3] is 12.5 mg/kg. This molecule came in with a T/C in the experiment on Mus musculus [4] of 117%.

For `C=C(Br)CNc1cc(C(=O)Nc2cc(C(=O)Nc3cc(C(=O)NCCC(=N)N)n(C)c3)n(C)c2)n(C)c1`, the IC50 in the experiment with L1210 [2] was above 1.6 µM.

`Cl.Cn1cc(NC(=O)c2cc(NC(=O)c3cc(NC(=O)/C=C/Cl)cn3C)cn2C)cc1C(=O)NCCC(=N)N` gave an IPol in the experiment with L1210 [1] above 100 µM.

As for `C=C(Br)C(=O)Nc1cc(C(=O)Nc2cc(C(=O)Nc3cc(C(=O)NCCC(=N)N)n(C)c3)n(C)c2)n(C)c1.Cl`, the IPol with L1210 [1] was 0.1035 µM. The OD in the experiment with Mus musculus [5] was 12.5 mg/kg. In addition, in the experiment on Mus musculus [4], the T/C is reported as 100%.

Consider `C=C(Br)C(=O)Nc1cc(C(=O)Nc2cc(C(=O)Nc3cc(C(=O)Nc4cc(C(=O)Nc5cc(C(=O)NCCC(=N)N)n(C)c5)n(C)c4)n(C)c3)n(C)c2)n(C)c1.Cl`, for which half-maximal inhibition with L1210 [2] (IC50) was put at 0.023 µM. The OD with Mus musculus [3] worked out at 0.78 mg/kg. This molecule registered a T/C with Mus musculus [4] of 167%.

Regarding `C=C(Br)C(=O)Nc1cc(C(=O)NCCC(=N)N)n(C)c1`, in the experiment with L1210 [2], the IC50 was above 13 µM.

With `C=C(Br)C(=O)Nc1cc(C(=O)Nc2cc(C(=O)Nc3cc(C(=O)Nc4cc(C(=O)NCCC(=N)N)n(C)c4)n(C)c3)n(C)c2)n(C)c1.Cl`, the OD in the experiment with Mus musculus [3] came to 1.56 mg/kg. For the same molecule, the T/C with Mus musculus [4] is reported as 200%.

As to `C=C(Cl)C(=O)Nc1cc(C(=O)Nc2cc(C(=O)Nc3cc(C(=O)Nc4cc(C(=O)NCCC(=N)N)n(C)c4)n(C)c3)n(C)c2)n(C)c1.Cl`, in the experiment with L1210 [2], the midpoint of inhibition, the IC50, lay at 0.0038 µM. The same molecule yielded an OD with Mus musculus [3] of 1.56 mg/kg. The T/C with Mus musculus [4] was found to be 133%.

With `C=C(F)C(=O)Nc1cc(C(=O)Nc2cc(C(=O)Nc3cc(C(=O)NCCC(=N)N)n(C)c3)n(C)c2)n(C)c1`, the IC50 in the experiment with L1210 [2] is above 0.8 µM.
